Experimental findings from patent US20230040125A1, “TARGETING THE INTRINSIC APOPTOTIC MACHINERY IN GLIOBLASTOMA” (The Regents of The University Of California, priority 2019, published 2023) are described below.

“Also recorded” adds a separate entry of the source.

The subject of this assay is GBM lines. In words: TMZ/IR titrated across a panel of GBM lines with a fixed dose of BCLXL inhibitor, cell death. The class given is cell-based. The settings on record: TMZ/IR titrated with a fixed dose of A1155463. The source says:
In the triplet of histogram bars for each dosage, the left bar represents all data (TMZR/IR alone, n=17), the center bar represents p53 WT+BCLXL In. (n=12), and the right bar represents p53 mutants+BCLXL In. (n=5). […] To investigate if BCL-xL is preventing the standard of care from inducing apoptosis, TMZ/IR were titrated in across a panel of genetically diverse GBM lines (n=17) with a fixed dose of BCLXL inhibitor (A1155463).

On to `CN(C)CC#Cc1ccc(OCCCc2sc(N3CCc4cccc(C(=O)Nc5nc6ccccc6s5)c4C3)nc2C(=O)O)c(F)c1` [A1155463], for which the cell death entry is listed as “no added benefit” (p53 mutant GBM, panel n=17 (p53 mutants n=5)) and “significantly increase cell death; also recorded: increases cell death” (p53 wild type GBM, panel n=17 (p53 WT n=12)).
